{
  "source": "patent US8298992B2",
  "about": "“Low odor, low volatility solvent for agricultural chemicals” (Huntsman Petrochemical LLC, priority 2006, dated 2012)",
  "origin": "cited, not measured here",
  "details": "solubility data available for a dimethyamide (comparison)",
  "data": [
    {"compound": "CCCCCCCCCC(=O)N(C)C", "note": "[N,N-dimethyldecanamide]", "values": [
      {"measurement": "Solubility in Water (wt %)", "result": 3.8, "unit": "% wt %"}
    ]}
  ]
}
